Test: DPPH free radical elimination test
Format: biochemical
Settings: 10 mg/ml sample, 0.1 mM DPPH, room temperature 30 minutes, OD 517 nm
Method: Trial (A): DPPH Free Radical Elimination Test Referring to TABLE 1, there are six groups (A0) to (A5) to test, wherein the group (A0) comprising 10 mg/ml of ascorbic acid, and other five groups comprising extract of a dry Andrographis paniculata sample, a dry Acanthopanax senticosus sample or a combination of dry Andrographis paniculata sample and dry Acanthopanax senticosus sample in various weight ratios respectively. The group (A1) is a liquid extract obtained by extracting 4 kg of dry Andrographis paniculata sample with 1 liter of 95% ethanol. The group (A2) is a liquid extract obtained by extracting 4 kg of dry Acanthopanax senticosus sample with 1 liter of 95% ethanol. The group (A3) is a liquid extract obtained by extracting 4 kg of dry Andrographis paniculata sample and dry Acanthopanax senticosus sample in a weight ratio of 1:1 with 1 liter of 95% ethanol. The group (A4) is a liquid extract obtained by extracting 4 kg of dry Andrographis paniculata and dry Acanthopanax senticosus in a weight ratio of 1:2 with 1 liter of 95% ethanol. The group (A5) is a liquid extract obtained by extracting 4 kg of dry Andrographis paniculata and dry Acanthopanax senticosus in a weight ratio of 1:3 with 1 liter of 95% ethanol. […] The 6 samples are analyzed in the DPPH free radical elimination ability. […] DPPH elimination rates of each sample are further calculated by using Formula I. [formula]

In the case of `O=C1O[C@H]([C@@H](O)CO)C(O)=C1O` [ascorbic acid], the “Percentage of DPPH elimination (%)” value is reported as 96.4 ± 2.7%.

Source: patent publication US20130273182A1, “A Herbal Extract for Treating Fatty Liver Disease and a Medication Thereof” (priority 2012, published 2013)
